{"source": "patent US10350213B2", "about": "(AI Therapeutics, Inc., priority 2015, dated 2019)", "key": {"[1]": {"test_system": "PANC1 (Human pancreatic cancer)", "assay": "CellTiterGlo cell viability assay", "type": "cell-based", "conditions": "PANC-1"}, "[2]": {"assay": "Phase 1 dose-escalation (QD/BID) study in normal healthy volunteers", "type": "in vivo, human", "conditions": "for Cmax: oral, human plasma, mean"}, "[3]": {"test_system": "PC-3 (Human prostate cancer)", "assay": "CellTiterGlo cell viability assay", "type": "cell-based"}, "TOV-21G (Human ovarian)": {"test_system": "TOV-21G (Human ovarian)", "assay": "CellTiterGlo cell viability assay", "type": "cell-based", "conditions": "TOV21G"}, "[4]": {"test_system": "K562 (Human myelogenous leukemia)", "assay": "CellTiterGlo cell viability assay", "type": "cell-based"}, "[5]": {"test_system": "CAPAN2 (Human pancreatic cancer)", "assay": "CellTiterGlo cell viability assay", "type": "cell-based", "conditions": "Capan-2"}, "[6]": {"test_system": "M0591K (Human neuroblastoma)", "assay": "CellTiterGlo cell viability assay", "type": "cell-based"}, "[7]": {"conditions": "active Crohn's disease; Sands et al. 2010; cited from earlier work"}, "[8]": {"test_system": "COLO-205 (Human Colorectal)", "assay": "CellTiterGlo cell viability assay", "type": "cell-based", "description": "(§1) Briefly, test compounds (5 μl stock solution, 6×desired final well concentration) were dispensed to 384-well assay plates, TSC2−/− MEF cells (1000 cells per well in 25 μL of media) were added to the plates and the plates were incubated for 72 h (3 days) at 37° C. under an atmosphere of 5% CO2 in a humidified incubator for 3 days. Cell viability was determined with CellTiter-Glo® luminescence assay (Promega) per the manufacturer's instructions. Viability was expressed as a percentage of untreated control cells.\n(§2) 35 cell lines were identified as sensitive to apilimod-induced cytotoxicity in this assay. The apilimod-sensitive cells included cells derived from several different cancers including non-Hodgkin's lymphoma, Hodgkin's lymphoma, colorectal cancer, and lung cancer. The most sensitive of those tested were non-Hodgkin's Lymphoma (NHL) cell lines. […] The only NHL subtype not sensitive in this assay was follicular."}, "Vac14": {"target": "T1, Vac14 (Homo sapiens, UniProt Q08AM6)", "T1 construct": "whole cell lysate prepared from human neuroglioma cells; endogenous in cells; host or cells: human neuroglioma cells (whole cell lysate)", "T1 sequence (Q08AM6 whole entry)": "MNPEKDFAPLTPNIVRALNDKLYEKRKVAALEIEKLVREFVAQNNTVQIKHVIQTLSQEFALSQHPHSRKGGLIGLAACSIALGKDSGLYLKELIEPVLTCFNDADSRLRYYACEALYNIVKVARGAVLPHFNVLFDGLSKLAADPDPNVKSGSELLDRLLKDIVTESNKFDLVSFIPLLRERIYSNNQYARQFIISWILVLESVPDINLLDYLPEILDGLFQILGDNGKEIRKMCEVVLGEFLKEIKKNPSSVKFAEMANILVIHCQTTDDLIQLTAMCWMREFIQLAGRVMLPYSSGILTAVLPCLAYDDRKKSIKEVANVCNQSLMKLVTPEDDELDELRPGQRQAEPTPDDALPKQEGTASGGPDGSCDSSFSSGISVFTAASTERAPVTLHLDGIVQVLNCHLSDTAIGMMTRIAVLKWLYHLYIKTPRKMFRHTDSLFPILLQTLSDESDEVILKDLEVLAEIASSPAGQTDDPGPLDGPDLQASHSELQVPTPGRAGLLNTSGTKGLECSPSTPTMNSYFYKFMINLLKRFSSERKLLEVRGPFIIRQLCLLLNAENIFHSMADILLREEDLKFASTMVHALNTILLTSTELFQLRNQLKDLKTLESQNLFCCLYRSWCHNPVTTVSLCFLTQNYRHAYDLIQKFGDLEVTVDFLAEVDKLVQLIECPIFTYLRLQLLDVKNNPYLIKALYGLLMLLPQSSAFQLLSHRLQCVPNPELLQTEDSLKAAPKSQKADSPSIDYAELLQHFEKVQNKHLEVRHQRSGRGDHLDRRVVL", "T1 sequence (Q9Y2I7 2-2098 partner)": "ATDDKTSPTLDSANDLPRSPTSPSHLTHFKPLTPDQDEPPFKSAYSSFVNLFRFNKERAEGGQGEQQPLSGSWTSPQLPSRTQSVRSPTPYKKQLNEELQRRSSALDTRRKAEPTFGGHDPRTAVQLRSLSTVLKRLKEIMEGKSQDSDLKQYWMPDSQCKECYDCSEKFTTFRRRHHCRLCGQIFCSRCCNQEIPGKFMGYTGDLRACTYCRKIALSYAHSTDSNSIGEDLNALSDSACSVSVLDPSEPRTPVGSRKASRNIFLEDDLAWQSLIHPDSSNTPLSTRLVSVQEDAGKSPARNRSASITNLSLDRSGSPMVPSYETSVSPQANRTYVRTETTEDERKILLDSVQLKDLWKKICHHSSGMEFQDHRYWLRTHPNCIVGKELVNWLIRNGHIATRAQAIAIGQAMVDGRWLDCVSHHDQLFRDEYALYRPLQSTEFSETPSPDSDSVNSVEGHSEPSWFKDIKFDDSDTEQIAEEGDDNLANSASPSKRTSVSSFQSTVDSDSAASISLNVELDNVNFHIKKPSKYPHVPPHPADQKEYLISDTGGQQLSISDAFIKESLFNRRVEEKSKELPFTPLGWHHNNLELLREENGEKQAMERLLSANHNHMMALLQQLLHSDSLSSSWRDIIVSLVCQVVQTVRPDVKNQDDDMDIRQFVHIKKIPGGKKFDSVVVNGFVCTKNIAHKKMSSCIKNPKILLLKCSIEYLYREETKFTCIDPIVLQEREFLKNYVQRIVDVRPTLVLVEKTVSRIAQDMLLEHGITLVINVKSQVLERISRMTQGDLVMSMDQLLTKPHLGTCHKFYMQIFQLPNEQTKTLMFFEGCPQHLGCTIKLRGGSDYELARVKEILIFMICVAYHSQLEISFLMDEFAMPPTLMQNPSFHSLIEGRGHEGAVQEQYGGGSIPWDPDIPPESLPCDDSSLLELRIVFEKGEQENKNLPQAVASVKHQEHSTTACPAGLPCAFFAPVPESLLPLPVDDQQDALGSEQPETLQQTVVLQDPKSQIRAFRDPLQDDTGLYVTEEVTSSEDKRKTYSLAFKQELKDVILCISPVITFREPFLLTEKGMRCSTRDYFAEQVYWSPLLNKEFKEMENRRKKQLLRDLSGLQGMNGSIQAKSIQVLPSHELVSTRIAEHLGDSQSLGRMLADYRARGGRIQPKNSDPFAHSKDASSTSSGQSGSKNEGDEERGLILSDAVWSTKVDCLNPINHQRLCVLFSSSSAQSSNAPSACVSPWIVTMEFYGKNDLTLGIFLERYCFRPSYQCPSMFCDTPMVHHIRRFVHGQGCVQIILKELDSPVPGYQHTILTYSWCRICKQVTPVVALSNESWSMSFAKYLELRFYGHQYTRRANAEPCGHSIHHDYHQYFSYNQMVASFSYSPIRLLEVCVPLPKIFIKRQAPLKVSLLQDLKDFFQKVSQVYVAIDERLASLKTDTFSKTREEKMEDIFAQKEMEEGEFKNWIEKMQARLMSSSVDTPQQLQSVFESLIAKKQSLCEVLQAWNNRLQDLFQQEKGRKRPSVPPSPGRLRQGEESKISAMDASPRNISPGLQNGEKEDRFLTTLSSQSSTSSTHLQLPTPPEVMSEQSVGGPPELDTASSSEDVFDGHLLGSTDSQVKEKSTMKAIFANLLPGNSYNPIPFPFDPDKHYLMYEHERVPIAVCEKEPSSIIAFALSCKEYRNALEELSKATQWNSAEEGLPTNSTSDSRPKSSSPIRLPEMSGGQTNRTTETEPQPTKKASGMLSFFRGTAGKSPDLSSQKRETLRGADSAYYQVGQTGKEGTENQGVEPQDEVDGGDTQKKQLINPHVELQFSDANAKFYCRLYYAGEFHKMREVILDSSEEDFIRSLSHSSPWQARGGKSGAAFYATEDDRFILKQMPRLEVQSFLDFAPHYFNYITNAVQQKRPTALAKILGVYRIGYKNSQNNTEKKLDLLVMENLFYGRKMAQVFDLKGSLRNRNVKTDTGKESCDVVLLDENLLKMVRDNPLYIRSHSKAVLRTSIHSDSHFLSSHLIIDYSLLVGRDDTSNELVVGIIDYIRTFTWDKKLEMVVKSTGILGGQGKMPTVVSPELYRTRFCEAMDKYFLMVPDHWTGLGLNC", "assay": "Chemical capture mass spectrometry (CCMS)", "type": "binding", "conditions": "apilimod as competitor ligand", "description": "(§3) This work was performed at Caprotec Bioanalytics GmbH, Berlin Germany. See Michaelis et al., J. Med. Chem., 55 3934-44 (2012) and references cited therein. […] Capture conditions were optimized in whole cell lysate, e.g. minimization of non-specific interactions of the proteins with capture compounds, concentration of reagents and proteins to obtain maximum binding of proteins and capture compounds, etc. […] These specific binders were further subjected to stringent data analysis criteria to determine specificity after unbiased data evaluation. Specific protein binders were ranked according to their fold change (FC) values in the capture experiments."}, "PIKfyve": {"target": "T2, PIKfyve (Homo sapiens, UniProt Q9Y2I7)", "T2 construct": "whole cell lysate prepared from human neuroglioma cells; endogenous in cells; host or cells: human neuroglioma cells (whole cell lysate)", "T2 sequence (Q9Y2I7 whole entry)": "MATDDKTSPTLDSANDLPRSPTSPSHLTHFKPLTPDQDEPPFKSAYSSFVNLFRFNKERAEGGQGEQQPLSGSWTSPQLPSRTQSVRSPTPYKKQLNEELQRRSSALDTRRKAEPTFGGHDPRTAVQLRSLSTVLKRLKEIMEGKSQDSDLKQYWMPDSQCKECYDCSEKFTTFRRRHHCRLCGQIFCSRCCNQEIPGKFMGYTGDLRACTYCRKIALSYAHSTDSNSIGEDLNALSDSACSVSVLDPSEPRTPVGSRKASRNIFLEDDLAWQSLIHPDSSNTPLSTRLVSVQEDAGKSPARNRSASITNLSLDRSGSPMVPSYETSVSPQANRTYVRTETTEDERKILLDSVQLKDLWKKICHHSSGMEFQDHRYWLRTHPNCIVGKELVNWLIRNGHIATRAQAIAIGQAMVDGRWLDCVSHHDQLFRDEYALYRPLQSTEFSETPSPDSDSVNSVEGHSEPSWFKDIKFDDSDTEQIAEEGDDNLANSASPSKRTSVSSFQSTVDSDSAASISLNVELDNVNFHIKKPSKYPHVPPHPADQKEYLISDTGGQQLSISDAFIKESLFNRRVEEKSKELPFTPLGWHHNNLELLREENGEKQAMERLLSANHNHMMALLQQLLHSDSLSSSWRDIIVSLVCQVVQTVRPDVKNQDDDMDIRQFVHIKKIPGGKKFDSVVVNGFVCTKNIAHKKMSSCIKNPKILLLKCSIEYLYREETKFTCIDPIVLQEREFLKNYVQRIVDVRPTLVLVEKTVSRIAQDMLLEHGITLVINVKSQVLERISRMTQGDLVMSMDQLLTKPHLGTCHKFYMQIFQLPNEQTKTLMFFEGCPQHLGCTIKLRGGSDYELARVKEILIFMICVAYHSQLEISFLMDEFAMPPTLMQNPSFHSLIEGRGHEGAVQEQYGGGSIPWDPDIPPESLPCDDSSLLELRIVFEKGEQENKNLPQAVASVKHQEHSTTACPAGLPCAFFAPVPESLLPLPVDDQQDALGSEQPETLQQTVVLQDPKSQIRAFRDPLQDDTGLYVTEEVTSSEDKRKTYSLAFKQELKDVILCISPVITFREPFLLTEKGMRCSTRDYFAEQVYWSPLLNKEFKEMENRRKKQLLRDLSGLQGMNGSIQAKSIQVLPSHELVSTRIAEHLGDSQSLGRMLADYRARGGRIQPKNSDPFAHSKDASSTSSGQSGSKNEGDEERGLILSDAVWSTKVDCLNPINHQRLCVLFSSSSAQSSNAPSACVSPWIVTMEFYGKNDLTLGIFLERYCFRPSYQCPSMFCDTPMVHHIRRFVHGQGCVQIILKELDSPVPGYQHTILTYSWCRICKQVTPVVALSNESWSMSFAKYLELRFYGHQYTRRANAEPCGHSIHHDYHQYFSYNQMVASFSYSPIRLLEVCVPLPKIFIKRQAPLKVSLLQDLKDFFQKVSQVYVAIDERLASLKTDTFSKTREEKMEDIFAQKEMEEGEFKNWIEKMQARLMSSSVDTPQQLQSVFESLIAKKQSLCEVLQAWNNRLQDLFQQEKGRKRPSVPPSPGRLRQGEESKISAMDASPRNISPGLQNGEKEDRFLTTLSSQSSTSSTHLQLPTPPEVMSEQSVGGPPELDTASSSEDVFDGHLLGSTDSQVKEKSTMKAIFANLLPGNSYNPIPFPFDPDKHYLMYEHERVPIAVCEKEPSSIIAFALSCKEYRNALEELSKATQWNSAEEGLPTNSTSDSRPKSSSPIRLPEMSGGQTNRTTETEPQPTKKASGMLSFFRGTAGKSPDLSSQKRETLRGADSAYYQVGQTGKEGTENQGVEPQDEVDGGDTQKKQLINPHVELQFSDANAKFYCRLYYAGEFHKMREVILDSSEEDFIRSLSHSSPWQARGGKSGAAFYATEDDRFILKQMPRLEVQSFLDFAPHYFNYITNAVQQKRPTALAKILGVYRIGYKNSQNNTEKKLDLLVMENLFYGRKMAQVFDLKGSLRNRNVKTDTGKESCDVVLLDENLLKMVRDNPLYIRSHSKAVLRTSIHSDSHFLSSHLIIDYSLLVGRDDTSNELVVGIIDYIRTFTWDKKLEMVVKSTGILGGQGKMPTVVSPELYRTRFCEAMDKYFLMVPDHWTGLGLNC", "assay": "Chemical capture mass spectrometry (CCMS)", "type": "binding", "conditions": "apilimod as competitor ligand", "description": "as §3"}, "[9]": {"test_system": "peripheral blood mononuclear cells", "assay": "Vacuole formation in peripheral blood mononuclear cells", "type": "cell-based", "conditions": "treatment for 24 h"}, "[10]": {"test_system": "synovial IL-12 and IL-23 expression", "conditions": "patients with rheumatoid arthritis; Krauz et al. 2012; cited from earlier work"}, "[11]": {"test_system": "SW1088 (Human neuroblastoma)", "assay": "CellTiterGlo cell viability assay", "type": "cell-based"}, "[12]": {"test_system": "DU145 (Human prostate cancer)", "assay": "CellTiterGlo cell viability assay", "type": "cell-based", "conditions": "DU-145"}, "[13]": {"test_system": "THP1 (Human acute monocytic leukemia)", "assay": "CellTiterGlo cell viability assay", "type": "cell-based", "conditions": "THP-1"}, "[14]": {"test_system": "TSC2−/− mouse embryonic fibroblasts (TSC2−/− MEF) cells", "assay": "High throughput cell viability screen (CellTiter-Glo)", "type": "cell-based", "conditions": "72 h", "description": "as §1"}, "[15]": {"test_system": "U-87 MG (Human neuroblastoma)", "assay": "CellTiterGlo cell viability assay", "type": "cell-based"}, "[16]": {"test_system": "MiaPaCa-2 (Human pancreatic cancer)", "assay": "CellTiterGlo cell viability assay", "type": "cell-based", "conditions": "MIA PaCa-2"}, "[17]": {"test_system": "RPMI-8226 (Human plasmacytoma)", "assay": "CellTiterGlo cell viability assay", "type": "cell-based"}, "[18]": {"test_system": "non-cancer (normal) cells", "assay": "Cell viability assay, non-cancer (normal) cells", "type": "cell-based", "from_the_text": "This is exemplified in FIG. 2A for the HCT116 colorectal carcinoma cells. […] And all NHL subtypes were sensitive in this assay, including mantle, follicular, Burkitt's, DLBCL-ABC, DLBCL-GCB, and double-hit DLBCL."}, "IL-12/IL-23 synthesis": {"test_system": "IL-12/IL-23 synthesis", "conditions": "oral administration; patients with psoriasis; Wada et al. 2012; cited from earlier work"}, "[19]": {"test_system": "SUDHL-4 (Human Diffuse Large B Cell Lymphoma -GCB)", "assay": "CellTiterGlo cell viability assay", "type": "cell-based"}, "[20]": {"test_system": "122 human cancer cell lines representing 24 tumor types", "assay": "3-day CellTiterGlo assay, cancer cell line panel", "type": "cell-based", "conditions": "of 122 human cancer cell lines; sensitive if IC50 less than 500 nM; 3-day assay", "from_the_text": "as §2"}, "[21]": {"test_system": "non-Hodgkin's Lymphoma (NHL) cell lines", "assay": "3-day CellTiterGlo assay, NHL cell lines", "type": "cell-based, human", "conditions": "sensitive if IC50 less than 500 nM; 3-day assay", "from_the_text": "as §2"}}, "note": "Where two headings read alike, the source gives them in different places.", "data": [{"compound": "Cc1cccc(/C=N/Nc2cc(N3CCOCC3)nc(OCCc3ccccn3)n2)c1", "note": "[apilimod]", "values": [{"measurement": "IC50", "setting": "[1]", "value": "> 2000", "unit": "nM"}, {"measurement": "share of the 24 hr period with plasma concentrations above 50 ng/ml", "setting": "[2]; 50 ng/ml equal to 125 nM, 105 mg BID", "value": "~50", "unit": "%"}, {"measurement": "safety profile", "setting": "[2]; 105 mg BID, humans", "value": "tolerable safety profile"}, {"measurement": "Cmax", "setting": "[2]; Treatment E: 70 mg ×2, total 140 mg, read-out: PM Cmax", "value": 110, "unit": "ng/mL"}, {"measurement": "Cmax", "setting": "[2]; human, plasma, po, 7 mg, Treatment A: 7 mg once, total 7 mg, read-out: AM Cmax", "value": 10.8, "unit": "ng/mL"}, {"measurement": "Cmax", "setting": "[2]; human, plasma, po, 7 mg, Treatment B: 7 mg ×2, total 14 mg, read-out: AM Cmax", "value": 12.7, "unit": "ng/mL"}, {"measurement": "Cmax", "setting": "[2]; human, plasma, po, 7 mg, Treatment B: 7 mg ×2, total 14 mg, read-out: PM Cmax", "value": 8.18, "unit": "ng/mL"}, {"measurement": "Cmax", "setting": "[2]; human, plasma, po, 14 mg, Treatment C: 14 mg ×2, total 28 mg, read-out: AM Cmax", "value": 18.2, "unit": "ng/mL"}, {"measurement": "Cmax", "setting": "[2]; human, plasma, po, 14 mg, Treatment C: 14 mg ×2, total 28 mg, read-out: PM Cmax", "value": 10.7, "unit": "ng/mL"}, {"measurement": "Cmax", "setting": "[2]; human, plasma, po, 35 mg, Treatment D: 35 mg ×2, total 70 mg, read-out: AM Cmax", "value": 71.8, "unit": "ng/mL"}, {"measurement": "Cmax", "setting": "[2]; human, plasma, po, 35 mg, Treatment D: 35 mg ×2, total 70 mg, read-out: PM Cmax", "value": 63, "unit": "ng/mL"}, {"measurement": "Cmax", "setting": "[2]; human, plasma, po, 70 mg, Treatment E: 70 mg ×2, total 140 mg, read-out: AM Cmax", "value": 145, "unit": "ng/mL"}, {"measurement": "Cmax", "setting": "[2]; human, plasma, po, 105 mg, Treatment F: 105 mg ×2, total 210 mg, read-out: AM Cmax", "value": 192, "unit": "ng/mL"}, {"measurement": "Cmax", "setting": "[2]; human, plasma, po, 105 mg, Treatment F: 105 mg ×2, total 210 mg, read-out: PM Cmax", "value": 149, "unit": "ng/mL"}, {"measurement": "IC50", "setting": "[3]", "value": 10000, "unit": "nM"}, {"measurement": "IC50", "setting": "TOV-21G (Human ovarian)", "value": 7000, "unit": "nM"}, {"measurement": "IC50", "setting": "[4]", "value": "> 5000", "unit": "nM"}, {"measurement": "IC50", "setting": "[5]", "value": "> 2000", "unit": "nM"}, {"measurement": "IC50", "setting": "[6]", "value": "> 10000", "unit": "nM"}, {"measurement": "efficacy over placebo", "setting": "[7]", "value": "did not demonstrate efficacy over placebo"}, {"measurement": "tolerability", "setting": "[7]", "value": "well tolerated"}, {"measurement": "IC50", "setting": "[8]", "value": 380, "unit": "nM"}, {"measurement": "log2 (FC)", "setting": "Vac14; capture compound 0.1 μM", "value": 6.2}, {"measurement": "log2 (FC)", "setting": "Vac14; capture compound 0.5 μM", "value": 5.6}, {"measurement": "log2 (FC)", "setting": "Vac14; capture compound 1.0 μM", "value": "Inf."}, {"measurement": "log2 (FC)", "setting": "Vac14; capture compound 2.0 μM", "value": 3.9}, {"measurement": "log2 (FC)", "setting": "PIKfyve; capture compound 0.1 μM, human neuroglioma whole cell lysate", "value": 6.3}, {"measurement": "log2 (FC)", "setting": "PIKfyve; capture compound 0.5 μM", "value": 6.2}, {"measurement": "log2 (FC)", "setting": "PIKfyve; capture compound 1.0 μM", "value": 4.1}, {"measurement": "log2 (FC)", "setting": "PIKfyve; capture compound 2.0 μM", "value": 4.3}, {"measurement": "vacuole formation", "setting": "[9]", "value": "induces vacuole formation"}, {"measurement": "effect on synovial IL-12 and IL-23 expression", "setting": "[10]", "value": "failed to alter synovial IL-12 and IL-23 expression"}, {"measurement": "IC50", "setting": "[11]", "value": "> 10000", "unit": "nM"}, {"measurement": "IC50", "setting": "[12]", "value": "> 2000", "unit": "nM"}, {"measurement": "IC50", "setting": "[13]", "value": "> 10000", "unit": "nM"}, {"measurement": "viability at 0.5 µM", "setting": "[14]; MEF-EV, 0.5 μM, Mean+/−StDev, n=3, read-out: cell viability (percentage of untreated control cells)", "value": 2.16, "unit": "%"}, {"measurement": "viability at 5 µM", "setting": "[14]; MEF-EV, 5 μM, Mean+/−StDev, n=3, read-out: cell viability (percentage of untreated control cells)", "value": 1.94, "unit": "%"}, {"measurement": "IC50", "setting": "[14]; TSC2−/− MEF cells, 10 point dose-response", "value": 19.5, "unit": "nM"}, {"measurement": "IC50", "setting": "[15]", "value": "> 10000", "unit": "nM"}, {"measurement": "IC50", "setting": "[16]", "value": "> 2000", "unit": "nM"}, {"measurement": "IC50", "setting": "[17]", "value": "> 10000", "unit": "nM"}, {"measurement": "IC50", "setting": "[18]", "value": 15800, "unit": "nM"}, {"measurement": "immunomodulatory activity", "setting": "IL-12/IL-23 synthesis", "value": "showed immunomodulatory activity"}, {"measurement": "IC50", "setting": "[19]; Homo sapiens, 72 h, SU-DHL-4, three-day assay, read-out: IC50 (nM) SU-DHL-4", "value": 23, "unit": "nM"}, {"measurement": "IC50", "setting": "[19]; Homo sapiens, SU-DHL-4, 72 h, SUDHL-4, 3-day CellTiterGlo assay, read-out: IC50", "value": 50, "unit": "nM"}, {"measurement": "IC50", "setting": "[19]; SU-DHL-4, SUDHL-4, Human DLBCL-GCB, read-out: IC50", "value": 25, "unit": "nM"}, {"measurement": "number of cell lines sensitive to apilimod-induced cytotoxicity", "setting": "[20]", "value": 35}, {"measurement": "share of NHL cell lines sensitive to apilimod", "setting": "[21]", "value": "over 50%"}]}]}
